Entries after “also recorded” stand apart in the source; their conditions may differ. Like-named read-outs stand apart in the source and are kept apart here.
B1: PDGF-BB: recombinant platelet derived growth factor-BB from R&D (protein, UniProt P01127 82-190, looked up)
Platelet-derived growth …: SLGSLTIAEPAMIAECKTRTEVFEISRRLIDRTNANFLVWPPCVEVQRCSGCCNNRNVQCRPTQVQLRPVQVRKIEIVRKKPIFKKATVTLEDHLACKCETVAAARPVT

Tested on: 2.2-kb hGFAP promoter (GFAP-LacZ transgene) in SAM-K cells
Format: cell-based
Details: for decrease of relative β-Gal activity / decrease in β-Gal activity: vs 0.2% DMSO control; for decrease in β-Gal activity: kinase inhibitor 10 μM; for induction of GFAP-lacZ transgene expression (β-Gal activity) by exogenous cytokines: TGF-β 1 and 10 ng/ml, PDGF-BB 10 ng/ml, TNF-α 10 ng/ml, 24, 32, 48 and 60 hours after treatment
Procedure: Transfection and isolation of stable cell lines: The 2.2-kb hGFAP-LacZ (Maubach, G., et al., World J Gastroenterol, 2006, 12(5): 723-30) or the 2.2-kb hGFAP-DsRed plasmid was used to transfect PSC lines, using LIPOFECTAMINE™ 2000 (Invitrogen, CA, USA) according to the manufacturer's instructions. DsRed expression was identified under fluorescence microscope (Leica, Wetzlar, Germany). To isolate the stable clones expressing GFAPLacZ in SAM-K cell line, 24 hours after transfection, the cell culture medium was changed into medium containing Zeocin (500 μg/ml, Invitrogen, CA, USA). The single clones were isolated by dilution in the 96 well plates, the positive β-galactosidase (β-Gal) clones were identified by β-Gal staining kit from Invitrogen (CA, USA). Stable clones were maintained in culture medium containing 250 μg/ml Zeocin.
Treatment of PSCs with cell signaling inhibitors: Before treatment with different factors, SAM-K cells stably expressing the GFAP-LacZ at 70-80% confluence were starved in 0.5% FBS overnight, TGF-β (1 ng/ml, 10 ng/ml), PDBF-BB (10 ng/ml), and TNF-α (10 ng/ml) treatments were carried out at different time points, PBS buffer (0.2%) treatment served as control. Kinase inhibitors (10 μM), including LY 294002, U0126, SP600125, SB 203580, retinol and its metabolites, including retinol, 9-RA, ATRA, were applied to the cell culture medium at both 2 μM and 5 μM concentrations. Treatment in 0.2% DMSO served as control. The transgenic β-Gal activity was quantified at various times following treatment.
To obtain cryostat sections, the pancreas was removed from both GFAP-LacZ transgenic mouse and wild type mouse of the same FVB/N genetic background, and were fixed in 4% PFA fixative for 30 minutes. The fixed tissues were infiltrated overnight with 30% sucrose. Small pieces of tissue were mounted in OCT medium, and 14-μm sections were collected onto POLYSINE™ slides (Menzel GmbH & Co KG, Braunschweig, Germany). The expression of lacZ gene was detected using a staining kit from Invitrogen. The sections were stained with X-gal substrate overnight at room temperature, and subsequently counter-stained with eosin, prior to being mounted on slides with HYDROMOUNT™ (National diagnostics, Georgia, USA). To quantify the GFAP-LacZ expression, the β-Gal activity in the total cell extracts was measured with an enzymatic assay kit (Promega, WI, USA).
Statistical analysis: All quantitative results were presented as mean±SE; data were analyzed with Student t-test.

| Molecule | decrease of relative β-Gal activity (2 μM, 24 hours after treatment) | decrease of relative β-Gal activity (2 μM, 48 hours after treatment) [%] | decrease of relative β-Gal activity (5 μM, 24 hours after treatment) | decrease of relative β-Gal activity (5 μM, 48 hours after treatment) | decrease in β-Gal activity (24 hours after treatment) | decrease in β-Gal activity (48 hours after treatment) | induction of GFAP-lacZ transgene expression (β-Gal activity) by exogenous cytokines |
| --- | --- | --- | --- | --- | --- | --- | --- |
| CC1=C(/C=C/C(C)=C\C=C\C(C)=C\C(=O)O)C(C)(C)CCC1 [9-RA, 9-cis retinoic acid] | about 44% | 37 | about 48% | about 46% |  |  |  |
| CC1=C(/C=C/C(C)=C/C=C/C(C)=C/C(=O)O)C(C)(C)CCC1 [ATRA, all-trans retinoic acid] | ~42% | 33 | ~42% | ~31% |  |  |  |
| O=c1cc(N2CCOCC2)oc2c(-c3ccccc3)cccc12 [LY 294002] |  |  |  |  | ~19% | about 15% |  |
| C[S+]([O-])c1ccc(-c2nc(-c3ccncc3)c(-c3ccc(F)cc3)[nH]2)cc1 (centres unmarked) [SB 203580] |  |  |  |  | not as significant | no significant effects |  |
| Oc1c2ccccc2c2c3c(cccc13)N=N2 [SP 600125] |  |  |  |  | about 25% | about 10% |  |
| N#CC(=C(/N)Sc1ccccc1N)/C(C#N)=C(\N)Sc1ccccc1N [U0126] |  |  |  |  | approximately 40% | about 15% |  |
| CC1=C(/C=C/C(C)=C/C=C/C(C)=C/CO)C(C)(C)CCC1 [retinol] | ~33% | 49 | ~38% | about 48% |  |  |  |
| TGF-β: recombinant TGF-β1 from R&D, pro-fibrogenic cytokine |  |  |  |  |  |  | None of the treatments specifically induced transgene expression; also recorded: No significant change in enzymatic activity |
| TNF-α |  |  |  |  |  |  | None of the treatments specifically induced transgene expression; also recorded: No significant change in enzymatic activity |
| B1 |  |  |  |  |  |  | None of the treatments specifically induced transgene expression; also recorded: No significant change in enzymatic activity |

Reference: patent publication US20110268711A1, “PANCREATIC STELLATE CELL SPECIFIC PROMOTER AND USES THEREOF” (AGENCY FOR SCIENCE, TECHNOLOGY AND RESEARCH, priority 2007, published 2011)
